According to patent publication US20100256107A1, “PREPARATION COMPOSITION” (Dainippon Sumitomo Pharma Co., Ltd., priority 2007, published 2010):

Columns and labels:
[1] = Stability in an aqueous solution of a formulation containing sodium bicarbonate (HPLC); type: physicochemical; conditions: for reduction of amount of Compound A: 6 hours at 25° C.
Procedure: Multiple vials were prepared and amounts of Compound A and sodium bicarbonate indicated in Table 5 were weighed and filled in each vial. Thereto was added physiological saline (100 ml). Amounts of Compound A and its degradation, Compounds B and C were measured just after dissolution and after preservation for 6 hours at 25° C.
• column: SUMIPAX ODS-A212 (silica gel binding with octadecyl group, • particle size: 5 μm; 6.0 mmφ×15 cm) • detector: ultraviolet spectrophotometer (wavelength: 220 nm) • column temperature: constant temperature around at 25° C. • mobile phase: A solution; 5 mmol/L phosphate buffer (pH7) and acetonitrile (300:23), B solution: acetonitrile • flow rate: 1.0 mL/min. • gradient condition: as shown in Table 6
The numbers described in columns of “just after dissolution” and “after preservation for 6 hours at 25° C.” on Table 8 show area % per total peaks which appear until 55 minutes under the above HPLC conditions.

[2] = Control of coloration in an aqueous solution formulation containing sodium bicarbonate (absorbance 380 nm); type: physicochemical; conditions: for change in absorbance, just after dissolution / change in absorbance, preservation time 1 hr / change in absorbance, preservation time 2 hr / change in absorbance, preservation time 3 hr / change in absorbance, preservation time 4 hr / change in absorbance, preservation time 5 hr / change in absorbance, preservation time 6 hr: 25° C., 380 nm
Procedure: Multiple vials were prepared, and Compound A, imipenem and sodium bicarbonate in amounts indicated in Table 11 were weighed, respectively and each mixture was put in each vial. A physiological saline (100 ml) was added to each vial to be dissolved. In addition, to a vial containing Tienam® for infusion (0.5 g potency/vial) was added a physiological saline (100 ml). Coloration (change of color) just after dissolution and when the solution was preserved at one hour intervals for 6 hours at 25° C. were measured by absorbency.
• Conditions of measurement by spectrophotometer; • cell: quartz 12.5 mm×12.5 mm×45 mm, capacity 3.5 ml • wavelength: 380 nm • measurement temperature: 25° C. • instrument: UV-2200A (Shimadzu)
The numbers described in columns of “just after dissolution” and each “preservation time” on Table 12 show values of change in absorbance just after dissolution when measured under the above conditions.

[3] = Comp. A 0.5 g/vial + sodium bicarbonate 0.0 mg/vial in physiological saline 100 ml
[4] = Comp. A 0.5 g/vial + sodium bicarbonate 1.0 mg/vial in physiological saline 100 ml
[5] = Comp. A 0.5 g/vial + sodium bicarbonate 2.5 mg/vial in physiological saline 100 ml
[6] = Comp. A 0.5 g/vial + sodium bicarbonate 5.0 mg/vial in physiological saline 100 ml
[7] = Comp. A 0.5 g/vial + sodium bicarbonate 10 mg/vial in physiological saline 100 ml
[8] = Comp. A 0.5 g/vial + sodium bicarbonate 15 mg/vial in physiological saline 100 ml
[9] = Comp. A 0.5 g/vial + sodium bicarbonate 20 mg/vial in physiological saline 100 ml
[10] = Comp. A 0.5 g/vial + sodium bicarbonate 50 mg/vial in physiological saline 100 ml
[11] = Comp. A 0.5 g/vial + sodium bicarbonate 100 mg/vial in physiological saline 100 ml
[12] = 0.5 g/vial + sodium bicarbonate 0.0 mg/vial in physiological saline 100 ml
[13] = 0.5 g/vial + sodium bicarbonate 1.0 mg/vial in physiological saline 100 ml
[14] = 0.5 g/vial + sodium bicarbonate 2.5 mg/vial in physiological saline 100 ml
[15] = 0.5 g/vial + sodium bicarbonate 5.0 mg/vial in physiological saline 100 ml
[16] = 0.5 g/vial + sodium bicarbonate 10 mg/vial in physiological saline 100 ml
[17] = 0.5 g/vial + sodium bicarbonate 20 mg/vial in physiological saline 100 ml
[18] = 0.5 g/vial + sodium bicarbonate 50 mg/vial in physiological saline 100 ml

C[C@H]1C=C(c2csc(SC3=C(C(=O)O)N4C(=O)[C@H]([C@@H](C)O)[C@H]4[C@H]3C)n2)CN1 [Compound A, (4R,5S,6S)-6-[(1R)-1-hydroxyethyl]-4-methyl-3-({4-[(5S)-5-methyl-2,5-dihydro-1H-pyrrol-3-yl]-1,3-thiazol-2-yl}sulfanyl)-7-oxo-1-azabicyclo[3.2.0]hept-2-ene-2-carboxylic acid]
Comp. A after preservation for 6 hrs. at 25° C. [1, 3]: 95.8 area % | Comp. A just after dissolution [1, 3]: 98.8 area % | Comp. B after preservation for 6 hrs. at 25° C. [1, 3]: 3.0 area % | Comp. B just after dissolution [1, 3]: 0.7 area % | Comp. C after preservation for 6 hrs. at 25° C. [1, 3]: 0.5 area % | Comp. C just after dissolution [1, 3]: 0.0 area % | Comp. A after preservation for 6 hrs. at 25° C. [1, 4]: 96.6 area % | Comp. A just after dissolution [1, 4]: 98.9 area % | Comp. B after preservation for 6 hrs. at 25° C. [1, 4]: 2.7 area % | Comp. B just after dissolution [1, 4]: 0.7 area % | Comp. C after preservation for 6 hrs. at 25° C. [1, 4]: 0.2 area % | Comp. C just after dissolution [1, 4]: 0.0 area % | Comp. A after preservation for 6 hrs. at 25° C. [1, 5]: 96.6 area % | Comp. A just after dissolution [1, 5]: 98.9 area % | Comp. B after preservation for 6 hrs. at 25° C. [1, 5]: 2.8 area % | Comp. B just after dissolution [1, 5]: 0.7 area % | Comp. C after preservation for 6 hrs. at 25° C. [1, 5]: ≤ 0.1 area % | Comp. C just after dissolution [1, 5]: 0.0 area % | Comp. C after preservation for 6 hrs. at 25° C. ([1]; Comp. A 0.5 g/vial + sodium bicarbonate 2.5 mg/vial in physiological saline 100 ml, listed as Comp. A): 0.0 area % | Comp. A after preservation for 6 hrs. at 25° C. [1, 6]: 96.3 area % | Comp. A just after dissolution [1, 6]: 98.9 area % | Comp. B after preservation for 6 hrs. at 25° C. [1, 6]: 3.0 area % | Comp. B just after dissolution [1, 6]: 0.6 area % | Comp. C after preservation for 6 hrs. at 25° C. [1, 6]: 0.0 area % | Comp. C just after dissolution [1, 6]: 0.0 area % | Comp. A after preservation for 6 hrs. at 25° C. [1, 7]: 95.9 area % | Comp. A just after dissolution [1, 7]: 98.9 area % | Comp. B after preservation for 6 hrs. at 25° C. [1, 7]: 3.5 area % | Comp. B just after dissolution [1, 7]: 0.7 area % | Comp. C after preservation for 6 hrs. at 25° C. [1, 7]: 0.0 area % | Comp. C just after dissolution [1, 7]: 0.0 area % | Comp. A after preservation for 6 hrs. at 25° C. [1, 8]: 95.4 area % | Comp. A just after dissolution [1, 8]: 98.9 area % | Comp. B after preservation for 6 hrs. at 25° C. [1, 8]: 3.9 area % | Comp. B just after dissolution [1, 8]: 0.6 area % | Comp. C after preservation for 6 hrs. at 25° C. [1, 8]: 0.0 area % | Comp. C just after dissolution [1, 8]: 0.0 area % | Comp. A after preservation for 6 hrs. at 25° C. [1, 9]: 95.2 area % | Comp. A just after dissolution [1, 9]: 98.8 area % | Comp. B after preservation for 6 hrs. at 25° C. [1, 9]: 4.1 area % | Comp. B just after dissolution [1, 9]: 0.6 area % | Comp. C after preservation for 6 hrs. at 25° C. [1, 9]: 0.0 area % | Comp. C just after dissolution [1, 9]: 0.0 area % | Comp. A after preservation for 6 hrs. at 25° C. [1, 10]: 93.5 area % | Comp. A just after dissolution [1, 10]: 98.6 area % | Comp. B after preservation for 6 hrs. at 25° C. [1, 10]: 5.5 area % | Comp. B just after dissolution [1, 10]: 0.7 area % | Comp. C after preservation for 6 hrs. at 25° C. [1, 10]: 0.0 area % | Comp. C just after dissolution [1, 10]: 0.0 area % | Comp. A after preservation for 6 hrs. at 25° C. [1, 11]: 92.4 area % | Comp. A just after dissolution [1, 11]: 98.9 area % | Comp. B after preservation for 6 hrs. at 25° C. [1, 11]: 6.6 area % | Comp. B just after dissolution [1, 11]: 0.6 area % | Comp. C after preservation for 6 hrs. at 25° C. [1, 11]: 0.0 area % | Comp. C just after dissolution [1, 11]: 0.0 area % | reduction of amount of Compound A ([1]; sodium bicarbonate increased to 20 mg from 15 mg per Compound A 500 mg): 0.2% | reduction of amount of Compound A ([1]; sodium bicarbonate increased to 50 mg from 20 mg per Compound A 500 mg): 1.7% | change in absorbance, just after dissolution [2, 12]: 0.00 Abs | change in absorbance, preservation time 1 hr [2, 12]: 0.01 Abs | change in absorbance, preservation time 2 hr [2, 12]: 0.03 Abs | change in absorbance, preservation time 3 hr [2, 12]: 0.05 Abs | change in absorbance, preservation time 4 hr [2, 12]: 0.07 Abs | change in absorbance, preservation time 5 hr [2, 12]: 0.11 Abs | change in absorbance, preservation time 6 hr [2, 12]: 0.13 Abs | change in absorbance, just after dissolution [2, 13]: 0.00 Abs | change in absorbance, preservation time 1 hr [2, 13]: 0.00 Abs | change in absorbance, preservation time 2 hr [2, 13]: 0.01 Abs | change in absorbance, preservation time 3 hr [2, 13]: 0.02 Abs | change in absorbance, preservation time 4 hr [2, 13]: 0.04 Abs | change in absorbance, preservation time 5 hr [2, 13]: 0.06 Abs | change in absorbance, preservation time 6 hr [2, 13]: 0.08 Abs | change in absorbance, just after dissolution [2, 14]: 0.00 Abs | change in absorbance, preservation time 1 hr [2, 14]: 0.00 Abs | change in absorbance, preservation time 2 hr [2, 14]: 0.00 Abs | change in absorbance, preservation time 3 hr [2, 14]: 0.00 Abs | change in absorbance, preservation time 4 hr [2, 14]: 0.00 Abs | change in absorbance, preservation time 5 hr [2, 14]: 0.01 Abs | change in absorbance, preservation time 6 hr [2, 14]: 0.01 Abs | change in absorbance, just after dissolution [2, 15]: 0.00 Abs | change in absorbance, preservation time 1 hr [2, 15]: 0.00 Abs | change in absorbance, preservation time 2 hr [2, 15]: 0.00 Abs | change in absorbance, preservation time 3 hr [2, 15]: 0.00 Abs | change in absorbance, preservation time 4 hr [2, 15]: 0.00 Abs | change in absorbance, preservation time 5 hr [2, 15]: 0.00 Abs | change in absorbance, preservation time 6 hr [2, 15]: 0.00 Abs | change in absorbance, just after dissolution [2, 16]: 0.00 Abs | change in absorbance, preservation time 1 hr [2, 16]: 0.00 Abs | change in absorbance, preservation time 2 hr [2, 16]: 0.00 Abs | change in absorbance, preservation time 3 hr [2, 16]: 0.00 Abs | change in absorbance, preservation time 4 hr [2, 16]: 0.00 Abs | change in absorbance, preservation time 5 hr [2, 16]: 0.00 Abs | change in absorbance, preservation time 6 hr [2, 16]: 0.00 Abs | change in absorbance, just after dissolution [2, 17]: 0.00 Abs | change in absorbance, preservation time 1 hr [2, 17]: 0.00 Abs | change in absorbance, preservation time 2 hr [2, 17]: 0.00 Abs | change in absorbance, preservation time 3 hr [2, 17]: 0.00 Abs | change in absorbance, preservation time 4 hr [2, 17]: 0.00 Abs | change in absorbance, preservation time 5 hr [2, 17]: 0.00 Abs | change in absorbance, preservation time 6 hr [2, 17]: 0.00 Abs | change in absorbance, just after dissolution [2, 18]: 0.00 Abs | change in absorbance, preservation time 1 hr [2, 18]: 0.00 Abs | change in absorbance, preservation time 2 hr [2, 18]: 0.00 Abs | change in absorbance, preservation time 3 hr [2, 18]: 0.00 Abs | change in absorbance, preservation time 4 hr [2, 18]: 0.00 Abs | change in absorbance, preservation time 5 hr [2, 18]: 0.00 Abs | change in absorbance, preservation time 6 hr [2, 18]: 0.00 Abs | suppression of coloration of the solution ([2]; at least 2.5 mg (0.005 part by weight) of sodium bicarbonate per 500 mg): observed | coloration by the visual inspection compared with a solution just after dissolution ([2]; sodium bicarbonate 2.5 mg per 500 mg, physiological saline, 6 hours at 25° C.): coloration was not observed by the visual inspection
